The source of these data is ChEMBL document CHEMBL1134975, “3-Hydroxy-4-methyl-5-pentyl-2-iminopyrrolidine: a potent and highly selective inducible nitric oxide synthase inhibitor” (Bioorg Med Chem Lett, 2002).

Assay [1] concerns the target T1, Nitric oxide synthase 3 (Homo sapiens, UniProt P29474).
T1 sequence (P29474 whole entry): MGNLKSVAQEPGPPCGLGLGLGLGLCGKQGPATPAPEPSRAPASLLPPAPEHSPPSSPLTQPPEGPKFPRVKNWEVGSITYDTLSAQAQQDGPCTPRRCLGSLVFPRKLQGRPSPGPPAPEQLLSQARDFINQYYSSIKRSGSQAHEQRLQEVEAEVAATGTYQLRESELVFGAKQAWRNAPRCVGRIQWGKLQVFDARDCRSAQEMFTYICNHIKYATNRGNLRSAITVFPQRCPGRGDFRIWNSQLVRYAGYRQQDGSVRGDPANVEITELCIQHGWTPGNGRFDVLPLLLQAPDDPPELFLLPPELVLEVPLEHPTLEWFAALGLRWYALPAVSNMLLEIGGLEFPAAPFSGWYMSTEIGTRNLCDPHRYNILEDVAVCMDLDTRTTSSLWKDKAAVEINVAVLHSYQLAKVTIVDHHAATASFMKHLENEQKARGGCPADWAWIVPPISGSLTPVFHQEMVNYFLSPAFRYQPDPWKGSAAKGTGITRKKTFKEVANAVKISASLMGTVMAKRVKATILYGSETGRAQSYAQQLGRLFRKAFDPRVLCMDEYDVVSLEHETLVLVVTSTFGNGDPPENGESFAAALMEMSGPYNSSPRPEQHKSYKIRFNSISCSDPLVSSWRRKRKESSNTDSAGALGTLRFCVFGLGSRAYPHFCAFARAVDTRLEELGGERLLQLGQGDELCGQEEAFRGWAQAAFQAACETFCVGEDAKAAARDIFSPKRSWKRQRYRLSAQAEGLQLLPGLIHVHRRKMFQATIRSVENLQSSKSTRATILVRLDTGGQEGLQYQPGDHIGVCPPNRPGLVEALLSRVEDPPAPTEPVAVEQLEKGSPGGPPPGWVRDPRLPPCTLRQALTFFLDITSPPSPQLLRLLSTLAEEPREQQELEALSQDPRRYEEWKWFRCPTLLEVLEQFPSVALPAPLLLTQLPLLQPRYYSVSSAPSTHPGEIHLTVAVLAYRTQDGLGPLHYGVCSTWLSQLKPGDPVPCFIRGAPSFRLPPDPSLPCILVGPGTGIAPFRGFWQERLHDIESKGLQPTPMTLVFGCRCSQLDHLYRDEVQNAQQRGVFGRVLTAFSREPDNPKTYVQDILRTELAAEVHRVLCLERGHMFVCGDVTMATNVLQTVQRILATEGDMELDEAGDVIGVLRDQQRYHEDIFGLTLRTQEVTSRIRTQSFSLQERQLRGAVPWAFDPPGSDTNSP
Nature of the assay: Inhibitory activity against Endothelial nitric oxide synthase.

Another assay deals with Nitric oxide synthase 1 (Homo sapiens, UniProt P29475). Nature of the assay: Inhibitory concentration against Neuronal nitric oxide synthase.
Nitric oxide synthase 1, sequence (P29475 whole entry): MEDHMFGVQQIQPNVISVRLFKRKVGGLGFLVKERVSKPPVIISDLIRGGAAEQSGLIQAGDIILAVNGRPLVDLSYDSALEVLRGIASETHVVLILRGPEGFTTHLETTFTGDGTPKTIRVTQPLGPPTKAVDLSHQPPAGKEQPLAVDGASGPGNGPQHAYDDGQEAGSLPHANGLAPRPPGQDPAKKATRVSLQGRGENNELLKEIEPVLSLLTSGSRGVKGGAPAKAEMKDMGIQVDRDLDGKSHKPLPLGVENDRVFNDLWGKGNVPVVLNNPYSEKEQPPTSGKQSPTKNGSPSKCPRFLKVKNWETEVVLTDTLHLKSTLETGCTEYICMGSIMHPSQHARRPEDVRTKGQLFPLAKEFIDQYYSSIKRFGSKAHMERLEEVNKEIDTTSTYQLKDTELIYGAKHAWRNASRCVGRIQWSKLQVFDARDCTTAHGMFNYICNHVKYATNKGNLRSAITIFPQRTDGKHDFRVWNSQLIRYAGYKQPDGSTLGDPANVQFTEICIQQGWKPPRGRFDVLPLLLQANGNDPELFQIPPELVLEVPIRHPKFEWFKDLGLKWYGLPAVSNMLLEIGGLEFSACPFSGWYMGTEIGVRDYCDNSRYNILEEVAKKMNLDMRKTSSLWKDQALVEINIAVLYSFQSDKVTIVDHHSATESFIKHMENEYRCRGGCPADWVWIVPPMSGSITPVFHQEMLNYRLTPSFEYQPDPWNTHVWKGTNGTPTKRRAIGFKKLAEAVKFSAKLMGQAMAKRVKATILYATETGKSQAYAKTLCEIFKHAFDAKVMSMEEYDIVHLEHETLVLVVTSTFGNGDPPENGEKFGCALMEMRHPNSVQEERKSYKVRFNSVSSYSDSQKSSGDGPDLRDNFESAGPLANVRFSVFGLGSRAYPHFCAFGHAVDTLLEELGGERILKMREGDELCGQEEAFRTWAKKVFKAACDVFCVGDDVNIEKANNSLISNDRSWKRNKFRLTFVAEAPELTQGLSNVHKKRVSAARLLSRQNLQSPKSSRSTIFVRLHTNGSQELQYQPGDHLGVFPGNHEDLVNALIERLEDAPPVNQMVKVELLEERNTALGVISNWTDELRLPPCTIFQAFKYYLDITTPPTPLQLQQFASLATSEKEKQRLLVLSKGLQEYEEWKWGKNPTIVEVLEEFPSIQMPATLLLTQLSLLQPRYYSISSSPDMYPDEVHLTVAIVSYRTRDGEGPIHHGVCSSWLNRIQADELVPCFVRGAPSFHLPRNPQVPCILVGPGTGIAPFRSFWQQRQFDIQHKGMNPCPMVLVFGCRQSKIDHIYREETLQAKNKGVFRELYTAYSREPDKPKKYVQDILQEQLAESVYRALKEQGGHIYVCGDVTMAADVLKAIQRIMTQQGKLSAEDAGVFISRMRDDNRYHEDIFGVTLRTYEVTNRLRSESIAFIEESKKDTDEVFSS
Assay [2] addresses Nitric oxide synthase, inducible (Homo sapiens, UniProt P35228). Nature of the assay: Inhibitory concentration against Inducible nitric oxide synthase (iNOS).
The target of assay [3] is T1, Nitric oxide synthase 3. Put plainly: Inhibitory concentration against Endothelial nitric oxide synthase.

pIC50: −log10 of the molar value.

Nitric oxide synthase, inducible, sequence (P35228 whole entry): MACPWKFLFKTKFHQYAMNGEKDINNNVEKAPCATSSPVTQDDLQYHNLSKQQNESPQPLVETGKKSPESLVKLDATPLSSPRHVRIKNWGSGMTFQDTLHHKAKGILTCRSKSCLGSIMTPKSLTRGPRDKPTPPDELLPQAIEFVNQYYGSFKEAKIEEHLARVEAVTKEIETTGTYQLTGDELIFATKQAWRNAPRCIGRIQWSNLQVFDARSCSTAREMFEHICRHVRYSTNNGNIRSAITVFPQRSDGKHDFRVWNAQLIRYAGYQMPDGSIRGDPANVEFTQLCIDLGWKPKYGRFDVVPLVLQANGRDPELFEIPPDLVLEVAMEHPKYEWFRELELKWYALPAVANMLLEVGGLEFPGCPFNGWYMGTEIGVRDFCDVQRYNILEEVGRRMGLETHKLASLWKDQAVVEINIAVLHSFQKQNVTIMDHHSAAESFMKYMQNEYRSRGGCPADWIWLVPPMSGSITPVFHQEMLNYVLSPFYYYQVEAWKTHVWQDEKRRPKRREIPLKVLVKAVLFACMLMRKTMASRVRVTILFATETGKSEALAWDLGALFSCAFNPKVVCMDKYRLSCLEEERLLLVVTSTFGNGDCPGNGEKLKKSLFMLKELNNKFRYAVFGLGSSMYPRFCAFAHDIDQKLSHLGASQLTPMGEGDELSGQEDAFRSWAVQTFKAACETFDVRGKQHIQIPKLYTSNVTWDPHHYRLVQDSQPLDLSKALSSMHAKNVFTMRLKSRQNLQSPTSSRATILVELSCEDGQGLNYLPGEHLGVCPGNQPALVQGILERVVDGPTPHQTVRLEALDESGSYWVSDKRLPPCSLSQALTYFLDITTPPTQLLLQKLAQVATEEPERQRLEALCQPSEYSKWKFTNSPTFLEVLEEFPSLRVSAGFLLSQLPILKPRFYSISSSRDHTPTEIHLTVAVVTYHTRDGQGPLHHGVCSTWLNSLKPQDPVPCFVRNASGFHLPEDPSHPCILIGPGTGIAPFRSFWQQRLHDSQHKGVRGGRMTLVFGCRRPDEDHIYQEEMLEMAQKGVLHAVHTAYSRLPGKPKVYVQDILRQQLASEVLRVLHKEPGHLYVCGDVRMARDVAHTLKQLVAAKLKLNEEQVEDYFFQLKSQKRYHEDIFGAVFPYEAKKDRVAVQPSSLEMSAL

As a reminder, the pIC50 is the negative decadic logarithm of the IC50, by convention in mol/L. A lower pIC50 goes with a large IC50. For the compound `CCCCC[C@H]1NC(=N)C[C@H]1C`, the pIC50 is 3.65 against Nitric oxide synthase 3 [1], 5.49 on Nitric oxide synthase 1 and 6.60 in assay [2].
The like results for `CCCCC[C@H]1NC(=N)[C@@H](O)[C@H]1C` were, in that order, 2.70, 4.57 and 6.11.
In the case of `CCCCC[C@@H]1N=C(N)[C@@H](O)[C@@H]1C`, the results for the negative logarithm of the IC50 (pIC50) (on Nitric oxide synthase 3 [3]; at Nitric oxide synthase 1; in assay [2]) were 3.03, 4.70 and 5.74, respectively.
`CCCCC[C@H]1NC(=N)C[C@H]1C` (single isomer, unassigned): the figures for the pIC50 (against Nitric oxide synthase 3 [1]; on Nitric oxide synthase 1; in assay [2]) were 3.24, 4.68 and 5.35, respectively.
Regarding `CCCCC[C@@H]1N=C(N)[C@H](O)[C@@H]1C`, the pIC50 was 2.53 on Nitric oxide synthase 3 [3], 4.31 against Nitric oxide synthase 1 and 5.55 in assay [2].
The like results for `CCCCC[C@H]1N=C(N)[C@H](O)[C@H]1C` were, in that order, 3.16, 5.05 and 5.74.
